For 34 compounds, inhibition in vivo results are on record in patent publication US9193669B2, “Compounds for treating ophthalmic diseases and disorders” (Acucela Inc., priority 2008, dated 2015).

Each structure is given as a SMILES string.

The target of this assay is T1, isomerase (Mus musculus, UniProt Q91ZQ5).
T1 construct: The recovery of 11-cis-retinal after bleaching can be used to estimate the activity of isomerase in vivo; from tissue; host or cells: eyes of living mice (CD-1; Balb/c also named)
T1 sequence (Q91ZQ5 1-533): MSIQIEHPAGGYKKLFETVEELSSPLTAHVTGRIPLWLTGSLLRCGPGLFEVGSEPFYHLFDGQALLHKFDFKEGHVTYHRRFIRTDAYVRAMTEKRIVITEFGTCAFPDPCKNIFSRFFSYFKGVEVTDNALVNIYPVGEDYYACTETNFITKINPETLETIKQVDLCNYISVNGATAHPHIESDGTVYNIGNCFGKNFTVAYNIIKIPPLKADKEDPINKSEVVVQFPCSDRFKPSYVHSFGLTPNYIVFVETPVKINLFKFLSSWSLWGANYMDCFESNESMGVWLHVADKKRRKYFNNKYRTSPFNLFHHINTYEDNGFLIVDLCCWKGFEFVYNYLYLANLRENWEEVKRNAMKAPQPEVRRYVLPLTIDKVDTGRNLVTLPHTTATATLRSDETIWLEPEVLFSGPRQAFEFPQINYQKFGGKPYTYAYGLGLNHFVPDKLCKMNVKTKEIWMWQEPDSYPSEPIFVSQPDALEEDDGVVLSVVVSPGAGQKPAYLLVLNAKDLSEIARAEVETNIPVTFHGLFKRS
As to the kind of experiment: In vivo murine isomerase assay. On the set-up: species or system mice. To be noted: mouse, po, 4 h; read-out: % Inibition 1 mg/kg, 4 h. How it is done:
The capability of compounds described herein to inhibit isomerase was determined by an in vivo murine isomerase assay. Brief exposure of the eye to intense light (“photobleaching” of the visual pigment or simply “bleaching”) is known to photo-isomerize almost all 11-cis-retinal in the retina. The recovery of 11-cis-retinal after bleaching can be used to estimate the activity of isomerase in vivo. Delayed recovery, as represented by lower 11-cis-retinal oxime levels, indicates inhibition of isomerization reaction. Procedures were performed essentially as described by Golczak et al., Proc. Natl. Acad. Sci. […] Mice were gavaged with the compounds described in the present disclosure. After about 2-24 hours in the dark, the mice were exposed to photobleaching of about 5,000 lux of white light for 10 minutes. The mice were allowed to recover for about 2 hours in the dark. The animals were then sacrificed by carbon dioxide inhalation. Retinoids were extracted from the eye and the regeneration of 11-cis-retinal was assessed at various time intervals. […] After the mice were sacrificed, the eyes were immediately removed and placed in liquid nitrogen for storage. The eyes were placed in about 500 μL of bis-tris propane buffer (10 mM, pH˜7.3) and about 20 μl of 0.8M hydroxylamine (pH˜7.3). The eyes were cut up into small pieces with small iris scissors and then thoroughly homogenized at 30000 rpm with a mechanical homogenizer (Polytron PT 1300 D) in the tube until no visible tissue remains. About 500 μL of methanol and about 500 μL of heptane was added to each tube. The tubes were attached to a vortexer so that the contents are mixed thoroughly for about 15 minutes in room temperature. […] The samples were analyzed on an Agilent 1100 HPLC system with normal phase column: SILICA (Beckman Coutlier, dp 5 μm, […]). […] Loading volume for each sample was about 100 μl; detection wavelength is 360 nm. The area under the curve for 11-cis-retinal oxime was calculated by Agilent Chemstation software and recorded manually. Data processing was performed using Prizm software. Positive control mice (no compound administered) were sacrificed fully dark-adapted and the eye retinoids analyzed. Light (bleached) control mice (no compound administered) were sacrificed and retinoids isolated and analyzed immediately after light treatment. A time course study was also performed to determine the isomerase inhibitory activity of compounds of the present disclosure. Female or male mice (such as Balb/c mice) (at least 4/group) received 0 to about 5 mg of compounds (in water) per kg bodyweight orally, by gavage. The animals were then “photo-bleached” (about 5000 Lux white light for about 10 minutes) at about 2, 4, 8, 16 and 24 hours after dosing, and returned to darkness to allow recovery of the 11-cis-retinal content of the eyes. Mice were sacrificed about 2 hours after bleaching, eyes were enucleated, and retinoid content was analyzed by HPLC. A dose response in vivo isomerase inhibition study is performed with compounds of the present disclosure. Male or female mice (such as Balb/c mice)(at least about 8/group) are dosed orally with about 0.01 to 25 mg/kg of the compounds of HCl salts of the compounds in sterile water as solution, and photobleached about 4 hours after dosing. Recovery and retinoid analysis is performed as described above. Dark control mice are vehicle-only treated, sacrificed fully dark adapted without light treatment, and analyzed. […]
Turning to `[2H]C([2H])(CN)C(O)c1cccc(C#CC2CCCCC2)c1` (stereo not shown) [Example 122, 3-amino-1-(3-(cyclohexylethynyl)phenyl)-2,2-dideuteropropan-1-ol], the inhibition in vivo at 1 mg/kg was 84.9 ± 4.5%.

Take `[2H]C1([2H])C([2H])([2H])C([2H])([2H])C([2H])(C(=O)Nc2cccc(C(O)CCN)c2)C([2H])([2H])C1([2H])[2H]` (stereo not shown) [Example 93, N-(3-(3-Amino-1-hydroxypropyl)phenyl)-1,2,2,3,3,4,4,5,5,6,6-undecadeuterocyclohexanecarboxamide]: the inhibition in vivo at 1 mg/kg is -0.53 ± 4.53%.

As to `NCCC(O)c1cccc(NC(=O)C2CCCCC2)c1` (stereo not shown) [Example 15, N-(3-(3-amino-1-hydroxypropyl)phenyl)cyclohexanecarboxamide], the inhibition in vivo at 1 mg/kg is -0.003 ± 19.4%.

For `NCCC(=O)c1cccc(NCC2CCCCC2)c1` [Example 12, 3-amino-1-(3-(cyclohexylmethylamino)phenyl)propan-1-one], the inhibition in vivo at 1 mg/kg worked out at 9.16 ± 9.41%.

As for `NCCC(=O)c1cccc(NC(=O)C2CCCCC2)c1` [Example 16, N-(3-(3-aminopropanoyl)phenyl)cyclohexanecarboxamide], the inhibition in vivo at 1 mg/kg was determined as 17.1 ± 5.32%.

For the compound `CCC(CC)CNc1cccc(C(=O)CCN)c1` [Example 36, 3-Amino-1-(3-(2-ethylbutylamino)phenyl)propan-1-one], the inhibition in vivo at 1 mg/kg was -1.4 ± 2.78%.

Consider `[2H]C1(CNc2cccc(C(O)CCN)c2)CCCCC1` (stereo not shown) [Example 91, 3-Amino-1-(3-((1-deuterocyclohexyl)methylamino)phenyl)propan-1-ol], for which the inhibition in vivo at 1 mg/kg was determined as 95.5 ± 1.07%.

`[2H]/C(=C(/[2H])C(O)(CCC)CCC)c1cccc(C(O)CCN)c1` (stereo not shown) [Example 117, (E)-4-(2-(3-(3-Amino-1-hydroxypropyl)phenyl)-1,2-dideuterovinyl)heptan-4-ol]: the inhibition in vivo at 1 mg/kg came out at 97.9 ± 1.5%.

For the compound `[2H]C([2H])(N)CC(O)c1cccc(C#CC2CCCCC2)c1` (stereo not shown) [Example 123, 3-amino-1-(3-(cyclohexylethynyl)phenyl)-3,3-dideuteropropan-1-ol], the inhibition in vivo at 1 mg/kg was determined as 91.4 ± 2.5%.

Regarding `NCCC(O)c1cccc(NCCc2ccccc2)c1` (stereo not shown) [Example 49, 3-Amino-1-(3-(phenethylamino)phenyl)propan-1-ol], the inhibition in vivo at 1 mg/kg was found to be 4.54%.

Turning to `[2H]C([2H])(CN)C(O)c1cccc(NCC2CCCCC2)c1` (stereo not shown) [Example 82, 3-Amino-1-(3-(cyclohexylmethylamino)phenyl)-2,2-dideuteropropan-1-ol], the inhibition in vivo at 1 mg/kg came out at 75.1 ± 8.03%.

As for `CCCC(CCC)C(=O)Nc1cccc(C(O)CCN)c1` (stereo not shown) [Example 73, N-(3-(3-Amino-1-hydroxypropyl)phenyl)-2-propylpentanamide], the inhibition in vivo at 1 mg/kg is -1.24 ± 4.43%.

As for `[2H]C(O)(CCN)c1cccc(NCC2CCCCC2)c1` (stereo not shown) [Example 81, 3-Amino-1-(3-(cyclohexylmethylamino)phenyl)-1-deuteropropan-1-ol], the inhibition in vivo at 1 mg/kg was found to be 85 ± 3.06%.

Regarding `NCCC(O)c1cccc(NCC2CCCCC2)c1` (stereo not shown) [Example 11, 3-amino-1-(3-(cyclohexylmethylamino)phenyl)propan-1-ol], the inhibition in vivo at 1 mg/kg is 95.3 ± 2.7%.

As for `[2H]C([2H])(N)CC(O)c1cccc(C#CC2(O)CCCCC2)c1` (stereo not shown) [Example 121, 1-((3-(3-amino-3,3-dideutero-1-hydroxypropyl)phenyl)ethynyl)cyclohexanol], the inhibition in vivo at 1 mg/kg was 27.5 ± 9.6%.

Turning to `CCC(CC)CNc1cccc(C(O)CCN)c1` (stereo not shown) [Example 35, 3-amino-1-(3-(2-ethylbutylamino)phenyl)propan-1-ol], the inhibition in vivo at 1 mg/kg stood at 95.2 ± 1.41%.

Regarding `NCCCc1cccc(NCC2CCCC2)c1` [Example 31, 3-(3-aminopropyl)-N-(cyclopentylmethyl)aniline], the inhibition in vivo at 1 mg/kg turned out to be 9.52 ± 4.6%.

As to `CCCCCNc1cccc(C(O)CCN)c1` (stereo not shown) [Example 13, 3-amino-1-(3-(pentylamino)phenyl)propan-1-ol], the inhibition in vivo at 1 mg/kg was determined as 1.98 ± 6.02%.

As for `NCCCc1cccc(NS(=O)(=O)c2ccccc2)c1` [Example 99, N-(3-(3-Aminopropyl)phenyl)benzenesulfonamide], the inhibition in vivo at 1 mg/kg was -3.83 ± 5.52%.

Turning to `CCCCCNc1cccc(C(=O)CCN)c1` [Example 14, 3-amino-1-(3-(pentylamino)phenyl)propan-1-one], the inhibition in vivo at 1 mg/kg came out at 8.12 ± 16.2%.

Consider `COc1ccccc1CNc1cccc(C(O)CCN)c1` (stereo not shown) [Example 47, 3-Amino-1-(3-((2-methoxybenzyl)amino)phenyl)propan-1-ol], for which the inhibition in vivo at 1 mg/kg was 4.08 ± 4.84%.

`CN(CC1CCCCC1)c1cccc(C(O)CCN)c1` (stereo not shown) [Example 90, 3-Amino-1-(3-((cyclohexylmethyl)(methyl)amino)phenyl)propan-1-ol]: the inhibition in vivo at 1 mg/kg was 3.17 ± 4.97%.

`NCCCc1cccc(NCCCc2ccccc2)c1` [Example 64, 3-(3-Aminopropyl)-N-(3-phenylpropyl)aniline]: the inhibition in vivo at 1 mg/kg was found to be 3.83%.

As to `CCCC(CCC)CNc1cccc(C(O)CCN)c1` (stereo not shown) [Example 37, 3-Amino-1-(3-(2-propylpentylamino)phenyl)propan-1-ol], the inhibition in vivo at 1 mg/kg turned out to be 101.6 ± 0.49%.

For the compound `NCCC(=O)c1cccc(NCC2CCCC2)c1` [Example 40, 3-Amino-1-(3-(cyclopentylmethylamino)phenyl)propan-1-one], the inhibition in vivo at 1 mg/kg came out at 1.24 ± 9.74%.

For `NCCC(O)c1cccc(NCC2CCCC2)c1` (stereo not shown) [Example 39, 3-Amino-1-(3-(cyclopentylmethylamino)phenyl)propan-1-ol], the inhibition in vivo at 1 mg/kg was determined as 69.9 ± 6.85%.

As to `COc1ccccc1CNc1cccc(C(=O)CCN)c1` [Example 48, 3-Amino-1-(3-(2-methoxybenzylamino)phenyl)propan-1-one], the inhibition in vivo at 1 mg/kg is 0.21 ± 8.88%.

`NCCC(O)c1cccc(NCCCCCOCc2ccccc2)c1` (stereo not shown) [Example 41, 3-Amino-1-(3-(5-(benzyloxy)pentylamino)phenyl)propan-1-ol]: the inhibition in vivo at 1 mg/kg was -0.34 ± 6.12%.

`[2H]C([2H])(N)CC(O)c1cccc(NCC2CCCCC2)c1` (stereo not shown) [Example 83, 3-Amino-1-(3-(cyclohexylmethylamino)phenyl)-3,3-dideuteropropan-1-ol]: the inhibition in vivo at 1 mg/kg was 89.5 ± 2.09%.

Turning to `NCCC(O)c1cccc(NCCCc2ccccc2)c1` (stereo not shown) [Example 59, 3-Amino-1-(3-(3-phenylpropylamino)phenyl)propan-1-ol], the inhibition in vivo at 1 mg/kg worked out at 4.24 ± 13%.

For `NCCC(=O)c1cccc(NCCCc2ccccc2)c1` [Example 60, 3-Amino-1-(3-(3-phenylpropylamino)phenyl)propan-1-one], the inhibition in vivo at 1 mg/kg was -1.33 ± 5.2%.

For the compound `[2H]C([2H])(CN)C(O)c1cccc(NC(=O)C2CCCCC2)c1` (stereo not shown) [Example 57, N-(3-(3-amino-2,2-dideutero-1-hydroxypropyl)phenyl)cyclohexanecarboxamide], the inhibition in vivo at 1 mg/kg turned out to be 2.01 ± 1.3%.

For `NCCC(O)c1cccc(NS(=O)(=O)c2ccccc2)c1` (stereo not shown) [Example 101, N-(3-(3-Amino-1-hydroxypropyl)phenyl)benzenesulfonamide], the inhibition in vivo at 1 mg/kg was found to be 1.82 ± 10.5%.

On to `[2H]C([2H])(CN)C(O)c1cccc(NS(=O)(=O)C2CCCCC2)c1` (stereo not shown) [Example 58, N-(3-(3-amino-2,2-dideutero-1-hydroxypropyl)phenyl)cyclohexanesulfonamide], for which the inhibition in vivo at 1 mg/kg was 6.94 ± 5.15%.
